Molecules are shown by their SMILES.

The target of assay [1] is T1, CDK2 (Homo sapiens (Human), UniProt P24941). The assay is described as follows: p-Cl-ANS displacement assay (fluorescent binding assay).
The target of assay [2] is T1, CDK2. Description: Isothermal titration calorimetry (ITC). The assay is classed as binding. A general note: ITC needs no label: the signal is the heat of the interaction.
The target in the next assay is GST-tagged CDK2 (Homo sapiens (Human), UniProt P24941). The assay is described as follows: Surface plasmon resonance (SPR). Conditions: read-out: SPR Kd (SSA). It is filed as binding. (In general: SPR reads the build-up and loss of mass on a sensor chip optically.)
In a further assay the target is CDK2/cyclin A (Homo sapiens (Human), UniProt P24941). The assay is described as follows: ADP-Glo enzymatic activity assay. The assay is classed as biochemical. (In general: ADP-Glo first removes unused ATP, then detects ADP through luciferase.)

By IC50 is commonly meant the concentration at which inhibition is half-maximal. A higher IC50 goes with weaker potency. Regarding `N#Cc1ccc2[nH]cc(CCNc3ccc(C(F)(F)F)cc3C(=O)O)c2c1` [Example 29], the IC50 on CDK2 [1] amounted to 6.2 µM.

As usually defined, the Kd is the equilibrium constant for the complex coming apart. As to `O=C(O)c1c(NCCc2c[nH]c3ccccc23)cccc1[N+](=O)[O-]` [Example 88, 2-((2-(1H-Indol-3-yl)ethyl)amino)-6-nitrobenzoic acid], the IC50 at CDK2 [1] is 94 µM. Besides, the Kd at CDK2 [2] came to 79 µM.

In turn, `O=C(O)c1cc(SC(F)(F)F)ccc1NCCc1c[nH]c2cc(Br)ccc12` [Example 66, 2-((2-(6-Bromo-1H-indol-3-yl)ethyl)amino)-5-((trifluoromethyl)thio)benzoic acid] came in with an IC50 at CDK2 [1] of 0.17 µM. In other words, the sub-micromolar range.

At CDK2 [1], `CCCc1ccc(NCCc2c[nH]c3ccccc23)c(C(=O)O)c1` [Example 81, 2-((2-(1H-Indol-3-yl)ethyl)amino)-5-propylbenzoic acid] came in with a half-inhibitory concentration (IC50) of 5.6 µM. At CDK2 [2], this compound showed a Kd of 6.5 µM.

As for `Cc1cc(NCCc2c[nH]c3ccccc23)c(C(=O)O)cc1[N+](=O)[O-]` [Example 6], the IC50 on CDK2 [1] worked out at 4.2 µM. On CDK2 [2], this compound had a Kd of 5.7 µM.

The compound `O=C(O)c1cc(C(F)(F)F)ccc1NCCc1c[nH]c2cc(O)ccc12` [Example 95, 2-((2-(6-Hydroxy-1H-indol-3-yl)ethyl)amino)-5-(trifluoromethyl)benzoic acid] displayed a half-inhibitory concentration (IC50) on CDK2 [1] of 91 µM. This lies in the double-digit micromolar range.

On to `Nc1c([N+](=O)[O-])ccc(NCCc2c[nH]c3ccccc23)c1C(=O)O` [Example 7], for which, at CDK2 [1], the IC50 worked out at 4.1 µM. At CDK2 [2], the affinity, expressed as Kd, was 4.4 µM.

As for `O=C(O)c1cc(SC(F)(F)F)ccc1NCCc1c[nH]c2ccccc12` [Example 40], the IC50 at CDK2 [1] worked out at 0.15 µM.

`O=C(O)c1cc(SC(F)(F)F)ccc1NCCc1c(CO)[nH]c2ccccc12` [Example 64, 2-((2-(2-(Hydroxymethyl)-1H-indol-3-yl)ethyl)amino)-5-((trifluoromethyl)thio)benzoic acid] yielded an IC50 on CDK2 [1] of 3.8 µM.

For the compound `O=C(O)c1cc([N+](=O)[O-])ccc1NCCc1c[nH]c2cccc(F)c12` [Example 17], on CDK2 [1], the IC50 was 2.1 µM. Compared with the last compound, the IC50 is about 1.8-fold lower.

Take `Cc1cc(C(=O)O)c(NCCc2c[nH]c3ccccc23)cc1Cl` [Example 70, 2-((2-(1H-Indol-3-yl)ethyl)amino)-4-chloro-5-methylbenzoic acid]: the IC50 at CDK2 [1] amounted to 11 µM. On CDK2 [2], this compound yielded a dissociation constant (Kd) of 6.3 µM.

`O=C(O)c1cc(-c2ccccc2)ccc1NCCc1c[nH]c2ccccc12` [Example 79, 4-((2-(1H-Indol-3-yl)ethyl)amino)-[1,1′-biphenyl]-3-carboxylic acid] gave an IC50 at CDK2 [1] of 11 µM. Further, the Kd on CDK2 [2] was more than 100 µM.

`O=C(O)c1cc(SC(F)(F)F)ccc1NCCc1c(CO)[nH]c2cc(Br)ccc12` [Example 65, 2-((2-(6-Bromo-2-(hydroxymethyl)-1H-indol-3-yl)ethyl)amino)-5-((trifluoromethyl)thio)benzoic acid] gave an IC50 on CDK2 [1] of 0.34 µM.

Regarding `Cc1c([N+](=O)[O-])ccc(NCCc2c[nH]c3ccccc23)c1C(=O)O` [Example 68, 6-((2-(1H-Indol-3-yl)ethyl)amino)-2-methyl-3-nitrobenzoic], the IC50 on CDK2 [1] was determined as 4.9 µM.

On CDK2 [1], `O=C(O)c1cc(C(F)(F)F)ccc1NCCc1c(CO)[nH]c2ccccc12` [Example 27] gave an IC50 of 0.63 µM. This IC50 lies about 7.8-fold lower than the previous one.

In turn, `FC(F)(F)c1ccc(NCCc2c[nH]c3ccccc23)c(-c2nnn[nH]2)c1` [Example 33] registered an IC50 at CDK2 [1] of 6.6 µM.

The compound `O=C(O)c1cc(C(F)(F)F)ccc1NCCc1c[nH]c2cccc(O)c12` [Example 94, 2-((2-(4-Hydroxy-1H-indol-3-yl)ethyl)amino)-5-(trifluoromethyl)benzoic acid] displayed an IC50 on CDK2 [1] of 51 µM.

At CDK2 [1], `O=C(O)c1cc(C(F)(F)F)ccc1SCCc1c[nH]c2ccccc12` [Example 46] displayed an IC50 of 1 µM.

The compound `Cc1[nH]c2cc(Cl)cc(Cl)c2c1CCNc1ccc(C(F)(F)F)cc1C(=O)O` [Example 44] gave an IC50 on CDK2 [1] of 0.93 µM.

`O=C(O)c1cc([N+](=O)[O-])ccc1NCCc1c[nH]c2c(F)cccc12` [Example 20] gave an IC50 at CDK2 [1] of 6 µM.

In the case of `O=C(O)c1cc(C(F)(F)F)ccc1NCCc1c[nH]c2ccc([N+](=O)[O-])cc12` [Example 28], the IC50 at CDK2 [1] was found to be 0.66 µM.

Regarding `COc1ccc2c(CCNc3ccc([N+](=O)[O-])cc3C(=O)O)c[nH]c2c1` [Example 23], the IC50 at CDK2 [1] worked out at 1.5 µM.

`N#Cc1ccc2c(CCNc3ccc(SC(F)(F)F)cc3C(=O)O)c[nH]c2c1` [Example 67, 2-((2-(6-Cyano-1H-indol-3-yl)ethyl)amino)-5-((trifluoromethyl)thio)benzoic acid] showed an IC50 on CDK2 [1] of less than 0.1 µM.

`O=C(O)c1cc(C(F)(F)F)ccc1NCCc1c[nH]c2cc(Cl)ccc12` [Example 35]: the IC50 on CDK2 [1] was 0.092 µM; on CDK2/cyclin A it was 0.088 µM. The results for the Kd at CDK2 [2] and at GST-tagged CDK2 were 0.031 µM and 0.024 µM, respectively.

For `O=C(O)c1cc([N+](=O)[O-])ccc1NCCc1c[nH]c2cc(OC(F)(F)F)ccc12` [Example 25], the IC50 at CDK2 [1] was 0.94 µM. This counts as sub-micromolar.

At CDK2 [1], `N#Cc1cccc(NCCc2c[nH]c3ccccc23)c1C(=O)O` [Example 90, 2-((2-(1H-Indol-3-yl)ethyl)amino)-6-cyanobenzoic acid] displayed an IC50 of 37 µM.

Consider `O=C(O)c1cc(F)c(F)cc1NCCc1c[nH]c2ccccc12` [Example 41], for which, on CDK2 [1], the IC50 worked out at 2.4 µM.

In the case of `O=C(O)c1cc([N+](=O)[O-])ccc1NCCc1c[nH]c2ccc(F)cc12` [Example 19], the IC50 on CDK2 [1] amounted to 2.5 µM.

As to `COc1cc(NCCc2c[nH]c3ccccc23)c(C(=O)O)cc1Br` [Example 69, 2-((2-(1H-Indol-3-yl)ethyl)amino)-5-bromo-4-methoxybenzoic acid], the IC50 at CDK2 [1] stood at 28 µM.

For `CCOc1cc(NCCc2c[nH]c3cc(C#N)ccc23)c(C(=O)O)cc1OCC` [Example 62, 2-((2-(6-Cyano-1H-indol-3-yl)ethyl)amino)-4,5-diethoxybenzoic acid], at CDK2 [1], the IC50 came out at 0.77 µM.

In turn, `O=C(O)c1cc(C(F)(F)F)ccc1NCCc1c[nH]c2cc(F)ccc12` [Example 34] displayed a half-inhibitory concentration (IC50) at CDK2 [1] of 0.17 µM. The Kd on CDK2 [2] is 0.21 µM.

Turning to `O=C(O)c1c(NCCc2c[nH]c3ccccc23)cccc1C(F)(F)F` [Example 89, 2-((2-(1H-Indol-3-yl)ethyl)amino)-6-(trifluoromethyl)benzoic acid], on CDK2 [1], the IC50 stood at 120 µM.

At CDK2 [1], `FC(F)(F)c1ccc(NCCc2c[nH]c3cc(Br)ccc23)c(-c2nnn[nH]2)c1` [Example 37] returned an IC50 of 0.63 µM. Compared with the last compound, the IC50 is about 190-fold lower.

`O=C(O)c1cc2ccccc2cc1NCCc1c[nH]c2ccccc12` [Example 43] returned an IC50 at CDK2 [1] of 2.7 µM.

On to `CCSc1ccc(NCCc2c[nH]c3ccccc23)c(C(=O)O)c1` [Example 85, 2-((2-(1H-Indol-3-yl)ethyl)amino)-5-(ethylthio)benzoic acid], for which the affinity at CDK2 [2], expressed as Kd, was 9.1 µM.

In the case of `O=C(O)c1cc2c(cc1NCCc1c[nH]c3ccccc13)CCCC2` [Example 42], the IC50 at CDK2 [1] was found to be 6.8 µM.

`COc1cc(NCCc2c[nH]c3ccccc23)c(C(=O)O)cc1OC` [Example 71, 2-((2-(1H-Indol-3-yl)ethyl)amino)-4,5-dimethoxybenzoic acid] returned a Kd on CDK2 [2] of 10 µM.

Consider `Cc1[nH]c2cc(F)ccc2c1CC(C)Nc1ccc(C(F)(F)F)cc1C(=O)O` (stereo not shown) [Example 47], for which, at CDK2 [1], the IC50 is 0.17 µM.

On CDK2 [1], `Cc1[nH]c2c(Cl)c(Cl)ccc2c1CCNc1ccc(C(F)(F)F)cc1C(=O)O` [Example 45] yielded an IC50 of 1.6 µM. Compared with the last compound, the IC50 is about 9.4-fold higher.

Consider `O=C(O)c1cc2c(cc1NCCc1c[nH]c3ccccc13)OCCO2` [Example 73, 7-((2-(1H-Indol-3-yl)ethyl)amino)-2,3-dihydrobenzo[b][1,4]dioxine-6-carboxylic acid], for which, on CDK2 [2], the affinity, expressed as Kd, was 30 µM.

`O=C(O)c1cc(C(F)(F)F)ccc1NCCc1c[nH]c2c(O)cccc12` [Example 31] returned an IC50 on CDK2 [1] of 3.4 µM. In other words, the single-digit micromolar range.

`Cc1ccc(NCCc2c[nH]c3ccccc23)c(C(=O)O)c1` [Example 76, 2-((2-(1H-Indol-3-yl)ethyl)amino)-5-methylbenzoic acid] displayed a Kd on CDK2 [2] of 36 µM.

On to `O=C(O)c1cc([N+](=O)[O-])ccc1NCCc1c(C(=O)O)[nH]c2ccccc12` [Example 93, 3-(2-((2-Carboxy-4-nitrophenyl)amino)ethyl)-1H-indole-2-carboxylic acid], for which the IC50 at CDK2 [1] is 16 µM.

`O=Cc1ccc(NCCc2c[nH]c3ccccc23)c(C(=O)O)c1` [Example 91, 2-((2-(1H-Indol-3-yl)ethyl)amino)-5-formylbenzoic acid] had an IC50 on CDK2 [1] of 36 µM.

Turning to `O=C(O)c1c(NCCc2c[nH]c3ccccc23)ccc([N+](=O)[O-])c1O` [Example 9], the IC50 on CDK2 [1] was 0.66 µM. On CDK2 [2], this compound had a Kd of 0.36 µM.

`O=C(O)c1cc(OC(F)(F)F)ccc1NCCc1c[nH]c2cc(F)ccc12` [Example 48] displayed an IC50 at CDK2 [1] of 0.18 µM.

Take `CCc1ccc(NCCc2c[nH]c3ccccc23)c(C(=O)O)c1` [Example 77, 2-((2-(1H-Indol-3-yl)ethyl)amino)-5-ethylbenzoic acid]: the IC50 at CDK2 [1] came to 18 µM. In addition, binding at CDK2 [2] was put at a Kd of 22 µM.

As to `O=C(O)c1cc(OC(F)(F)F)ccc1NCCc1c[nH]c2cc(Br)ccc12` [Example 63, 2-((2-(6-Bromo-1H-indol-3-yl)ethyl)amino)-5-(trifluoromethoxy)benzoic acid], the IC50 on CDK2 [1] was less than 0.1 µM.

The compound `CC(C)(C)c1ccc(NCCc2c[nH]c3ccccc23)c(C(=O)O)c1` [Example 80, 2-((2-(1H-Indol-3-yl)ethyl)amino)-5-(tert-butyl)benzoic acid] came in with an IC50 at CDK2 [1] of 21 µM. Besides, the Kd at CDK2 [2] is more than 100 µM.

Turning to `O=C(O)c1c(O)cccc1NCCc1c[nH]c2ccccc12` [Example 8], the IC50 on CDK2 [1] was determined as 20 µM. In addition, at CDK2 [2], the affinity, expressed as Kd, was 5.9 µM.

(Values after patent US20240002339A1, “THERAPEUTIC COMPOUNDS AND METHODS” (Regents of the University of Minnesota, priority 2022, published 2024).)
